± gives the expanded uncertainty stated by the source.
Settings: Gas, single sinker densimeter

**Q.** Which mass density (258.14 K, 101.23 kPa) does the source give for `CCC` [propane] here?
**A.** 2.1368 ± 0.0093 kg/m3

**Q.** And the mass density (258.15 K, 201.63 kPa)?
**A.** 4.3743 ± 0.0095 kg/m3

**Q.** What about the mass density (258.15 K, 276.61 kPa) of the same molecule?
**A.** 6.1388 ± 0.0098 kg/m3

**Q.** And the mass density (263.16 K, 209.67 kPa)?
**A.** 4.4546 ± 0.0094 kg/m3

**Q.** And the mass density (263.17 K, 101.09 kPa)?
**A.** 2.0885 ± 0.0091 kg/m3

**Q.** And the mass density (263.17 K, 314.8 kPa)?
**A.** 6.8907 ± 0.0097 kg/m3

**Q.** And the mass density (268.14 K, 251.5 kPa)?
**A.** 5.2792 ± 0.0091 kg/m3

**Q.** What about the mass density (268.15 K, 101.59 kPa) of the same molecule?
**A.** 2.0567 ± 0.009 kg/m3

**Q.** And the mass density (268.16 K, 297.13 kPa)?
**A.** 6.3169 ± 0.0098 kg/m3

**Q.** What about the mass density (268.16 K, 386.83 kPa) of the same molecule?
**A.** 8.4369 ± 0.0099 kg/m3

**Q.** And the mass density (273.14 K, 250.22 kPa)?
**A.** 5.1361 ± 0.0093 kg/m3

**Q.** What about the mass density (273.15 K, 101.64 kPa) of the same molecule?
**A.** 2.0179 ± 0.0088 kg/m3

**Q.** And the mass density (273.15 K, 101.65 kPa)?
**A.** 2.0177 ± 0.0088 kg/m3

**Q.** What about the mass density (273.15 K, 462.55 kPa) of the same molecule?
**A.** 10.0438 ± 0.0098 kg/m3

**Q.** And the mass density (278.14 K, 283.52 kPa)?
**A.** 5.7427 ± 0.0093 kg/m3

**Q.** What about the mass density (278.14 K, 542.76 kPa) of the same molecule?
**A.** 11.76 ± 0.0099 kg/m3

**Q.** And the mass density (278.15 K, 105.47 kPa)?
**A.** 2.0544 ± 0.0087 kg/m3

**Q.** And the mass density (283.13 K, 101.63 kPa)?
**A.** 1.942 ± 0.0085 kg/m3

**Q.** And the mass density (283.13 K, 284.93 kPa)?
**A.** 5.6533 ± 0.0089 kg/m3

**Q.** What about the mass density (283.13 K, 452.56 kPa) of the same molecule?
**A.** 9.3303 ± 0.0097 kg/m3

**Q.** And the mass density (283.13 K, 615.83 kPa)?
**A.** 13.2515 ± 0.01 kg/m3

**Q.** And the mass density (288.21 K, 421.87 kPa)?
**A.** 8.433 ± 0.0093 kg/m3

**Q.** And the mass density (288.21 K, 538.6 kPa)?
**A.** 11.0628 ± 0.0099 kg/m3

**Q.** What about the mass density (288.22 K, 101.88 kPa) of the same molecule?
**A.** 1.9105 ± 0.0083 kg/m3

**Q.** And the mass density (288.22 K, 217.75 kPa)?
**A.** 4.1713 ± 0.0084 kg/m3

**Q.** What about the mass density (288.22 K, 322.62 kPa) of the same molecule?
**A.** 6.3129 ± 0.0088 kg/m3

**Q.** What about the mass density (288.22 K, 653.34 kPa) of the same molecule?
**A.** 13.8134 ± 0.01 kg/m3

**Q.** And the mass density (293.1 K, 803.62 kPa)?
**A.** 17.2181 ± 0.011 kg/m3

**Q.** And the mass density (293.12 K, 106.57 kPa)?
**A.** 1.9628 ± 0.0083 kg/m3

**Q.** And the mass density (293.12 K, 340.88 kPa)?
**A.** 6.5552 ± 0.0084 kg/m3

**Q.** Which results are given for `F/C=C/C(F)(F)F` [trans-1,3,3,3-tetrafluoropropene]?
**A.** mass density (263.17 K, 142.52 kPa): 7.8479 ± 0.023 kg/m3; mass density (263.18 K, 101.66 kPa): 5.5042 ± 0.023 kg/m3; mass density (263.18 K, 124.43 kPa): 6.8014 ± 0.023 kg/m3; mass density (268.16 K, 105.74 kPa): 5.6056 ± 0.022 kg/m3; mass density (268.16 K, 137.08 kPa): 7.3536 ± 0.023 kg/m3; mass density (268.17 K, 168.48 kPa): 9.1497 ± 0.023 kg/m3; mass density (273.11 K, 102.98 kPa): 5.3503 ± 0.022 kg/m3; mass density (273.12 K, 145.02 kPa): 7.6483 ± 0.022 kg/m3; mass density (273.12 K, 198.33 kPa): 10.6692 ± 0.023 kg/m3; mass density (278.14 K, 103.54 kPa): 5.2727 ± 0.022 kg/m3; mass density (278.14 K, 152.59 kPa): 7.8948 ± 0.022 kg/m3; mass density (278.14 K, 200.35 kPa): 10.5385 ± 0.023 kg/m3; mass density (278.14 K, 249.93 kPa): 13.3894 ± 0.023 kg/m3; mass density (283.14 K, 106.17 kPa): 5.3014 ± 0.021 kg/m3; mass density (283.15 K, 201.69 kPa): 10.3769 ± 0.022 kg/m3; mass density (283.15 K, 290.13 kPa): 15.3909 ± 0.024 kg/m3; mass density (283.15 K, 303.37 kPa): 16.1704 ± 0.024 kg/m3; mass density (288.11 K, 185.99 kPa): 9.3221 ± 0.021 kg/m3; mass density (288.12 K, 261.69 kPa): 13.4297 ± 0.023 kg/m3; mass density (288.12 K, 338.42 kPa): 17.8195 ± 0.024 kg/m3; mass density (288.13 K, 107.78 kPa): 5.2812 ± 0.021 kg/m3; mass density (288.13 K, 356.37 kPa): 18.8808 ± 0.024 kg/m3; mass density (293.16 K, 106.73 kPa): 5.1257 ± 0.021 kg/m3; mass density (293.16 K, 210.6 kPa): 10.407 ± 0.021 kg/m3; mass density (293.16 K, 302.68 kPa): 15.3725 ± 0.023 kg/m3; mass density (293.16 K, 408.92 kPa): 21.5052 ± 0.024 kg/m3

Reference: the NIST ThermoML archive (doi:10.1016/j.fluid.2015.09.010)
